Values joined by “and” are separate entries in the source; they are usually repeats but may differ in a detail not shown here. Identical values can stand only once. Ends that are not written are not given here.
Experiments:
RNA hairpin HRP2 (A-U) [1] = assay: ITC binding of PNA and GPNA to RNA hairpin HRP2 (Example 3); conditions: for -ΔG / -ΔH / -ΔS: acetate pH 5.5
Description: (§1) Isothermal Titration calorimetry. In a typical ITC experiment, an RNA hairpin solution (0.95 mL, […]) in acetate buffer [100 mM sodium acetate and 1.0 mM EDTA (pH 5.5)] was titrated with a PNA solution (50×5 μL, […]) using a Nano ITC G2 (TA Instruments) calorimeter. For full experimental details and data, see the Supporting Information. The titration data were analyzed using NanoAnalyze (TA Instruments) using an independent model to obtain the fitting graph and thermodynamic binding data (Table 7).
To gain more insight into different binding modes, guanidine-modified variants of hexamer CTCTTC (PNA4) were prepared and studied their binding to HRP2. […] While there was very little dependence on the number of modifications in the D series (entries 7-9), in the L series (entries 10-12) the affinity appeared to decrease somewhat with an increasing number of guanidine modifications.

[2] = tested on: ribosomal A-site model RNA hairpin HRP6; assay: ITC binding to bacterial ribosomal A-site model RNA hairpin HRP6 (Example 3); set-up: species or system Mycobacterium tuberculosis; conditions: sodium acetate buffer (pH 5.5)
[3] = tested on: ribosomal A-site model RNA hairpin HRP5; assay: ITC binding to human ribosomal A-site model RNA hairpin HRP5 (Example 3); conditions: sodium acetate buffer (pH 5.5)
[4] = cited from earlier work
RNA hairpin HRP1 (G-C) [5] = assay: ITC binding of PNA and GPNA to RNA hairpin HRP1 (Example 3); conditions: for Ka: 100 mM sodium acetate and 1.0 mM EDTA (pH 5.5); for -ΔG / -ΔH / -ΔS: acetate pH 5.5
Description: as §1
The guanidine-modified PNA oligomers [GPNA (FIG. 10)] were made using the standard Fmoc synthesis protocols on the Expedite 8909 synthesizer and purified by reverse-phase high-performance liquid chromatography. […] To allow direct comparison, the same GPNA sequences were prepared (FIG. 10), like the PNA used in previous study of triple-helix formation with double-helical RNA. The binding of GPNA to RNA hairpin (HRP1) was studied using isothermal titration calorimetry [ITC (FIG. 11)]. […] Formation of the complex was further confirmed using circular dichroism (CD) spectroscopy. […] Addition of 4.5 equiv (conditions mimicking the end point of ITC titration) of D-GPNA1 and L-GPNA1 to HRP1 induced a decrease in the magnitude of the CD signal at 240-250 nm, which was clearly visible in the difference spectra. However, a significant increase around 280 nm was not observed. […] Overall, the CD spectra confirmed the formation of GPNA-RNA complexes.

DNA version of HRP1 = assay: ITC binding of GPNA to a DNA version of HRP1 (Example 3); conditions: acetate pH 5.5
Description: as §1
Binding of D-GPNA1 to the HRP1 hairpin, consistent with, made of deoxynucleotides (DNA version of HRP1) was weaker by ˜1 order of magnitude (cf., entries 2 and 4). In contrast, the affinity of L-GPNA1 for either the RNA or DNA hairpin was practically the same (cf., entries 3 and 5). Under physiologically relevant conditions [37° C., in 2 mM MgCl2, 90 mM KCl, 10 mM NaCl, and 50 mM potassium phosphate (pH 7.4)], no binding of D-GPNA1 to HRP1 was observed. The sequence of PNA3 was symmetric and thus provided optimal binding for formation of both a parallel triple helix and an antiparallel duplex, as required for triplex invasion (FIGS. 12A-12C).

RNA hairpin HRP3 (C-G) = assay: ITC binding of PNA and GPNA to RNA hairpin HRP3 (Example 3); conditions: sodium acetate buffer (pH 5.5)
Description: as §1
(§2) Next the sequence selectivity of binding of GPNA1 to all four RNA hairpins having a variable central base pair [HRP1-HRP4 (FIGS. 6 and 10)] was checked.

RNA hairpin HRP4 (U-A) = assay: ITC binding of PNA and GPNA to RNA hairpin HRP4 (Example 3); conditions: sodium acetate buffer (pH 5.5)
Description: as §1, §2

RNA hairpin HRP1 (G-C) [6] = assay: ITC binding of PNA and GPNA to RNA hairpin HRP1 (Example 3); conditions: 37° C., 2 mM MgCl2, 90 mM KCl, 10 mM NaCl, 50 mM potassium phosphate (pH 7.4)
RNA hairpin HRP2 (A-U) [7] = assay: ITC binding of PNA and GPNA to RNA hairpin HRP2 (Example 3); conditions: experiment of entry 13 repeated in acetate buffer at pH 7.3
[8] = 100 mM sodium acetate and 1.0 mM EDTA (pH 5.5)

Compound | Ka (RNA hairpin HRP2 (A-U) [1]; [8]) | -ΔG (RNA hairpin HRP2 (A-U) [1]) [kcal/mol] | -ΔH (RNA hairpin HRP2 (A-U) [1]) [kcal/mol] | -ΔS (RNA hairpin HRP2 (A-U) [1]) [eu] | Average association constants Ka, M. tuberculosis (HRP6) [2] [M⁻¹] | Average association constants Ka, H. Sapiens (HRP5) [3] | other results
NH2-CTD-ArgCTD-ArgTD-ArgC [D-GPNA4] | 600000 M⁻¹ | 7.9 | 22.9 | 50 |  |  | 
NH2-CTD-ArgTCTD-ArgC [D-GPNA6] | 5e+06 M⁻¹ | 9.1 | 13.4 | 14 |  |  | 
H-CCCTPCTT (cysteine pairing not given here) [PNA13] |  |  |  |  | 1.5e+06 | NB[b] (No binding; Ka < 10^3 M^−1.) | 
NH2-CTCTD-ArgTC [D-GPNA2] | 500000 M⁻¹ | 7.8 | 70.0 | 209 |  |  | 
NH2-CCCTPexCTT [PNA14] |  |  |  |  | 2e+06 | NB[b] (No binding; Ka < 10^3 M^−1.) | 
NH2-CCCTL-ArgGCTL-ArgT [GPNA10] |  |  |  |  | 500000 | 2.8e+06 M⁻¹ | 
Nc1cc[nH]c(=O)n1 [cytosine] |  |  |  |  |  |  | pKa [4]: ~4.5
NH2-CCTGCTT [PNA11] |  |  |  |  | 200000 | 40000 M⁻¹ | 
NH2CTL-ArgGCTL-ArgT [GPNA13] |  |  |  |  | 2.9e+06 | 8.1e+06 M⁻¹ | 
NH2-CTD-ArgCCTD-ArgC [D-GPNA1] | 300000 M⁻¹ |  |  |  |  |  | Ka (RNA hairpin HRP1 (G-C) [5]): 4.6 ± 1.6 ×10^6 M^−1 and 4.6 ×10^6 M^−1; -ΔG (RNA hairpin HRP1 (G-C) [5]): 9.1 ± 0.2 kcal/mol; -ΔH (RNA hairpin HRP1 (G-C) [5]): 27.3 ± 2.5 kcal/mol; -ΔS (RNA hairpin HRP1 (G-C) [5]): 61 ± 9 eu; -ΔG (DNA version of HRP1): 7.7 kcal/mol; -ΔH (DNA version of HRP1): 29.1 kcal/mol; -ΔS (DNA version of HRP1): 72 eu; Ka (DNA version of HRP1): 400000 M⁻¹; Average association constants Ka, HRP3 (C-G) (RNA hairpin HRP3 (C-G)): 700000 M⁻¹; Average association constants Ka, HRP4 (U-A) (RNA hairpin HRP4 (U-A)): 1.3e+06 M⁻¹; binding to HRP1 under physiologically relevant conditions (RNA hairpin HRP1 (G-C) [6]): no binding
NH2-CTTD-ArgCTC [D-GPNA5] | 1.05e+07 M⁻¹ | 9.6 | 19.8 | 34 |  |  | Ka (RNA hairpin HRP2 (A-U) [1]; pH 5.5, antiparallel GPNA): ~10^7; binding to HRP2 in acetate buffer at pH 7.3 (RNA hairpin HRP2 (A-U) [7]): no binding
NH2-CTL-ArgTL-ArgCTL-ArgC [L-GPNA7] | 3.8 ± 0.1 ×10^6 M^−1 | 8.9 ± 0.3 | 13.0 ± 7.3 | 14 ± 25 |  |  | 
NH2-CTD-ArgTD-ArgCTD-ArgC [D-GPNA7] | 0.4 ± 0.01 ×10^6 M^−1 | 7.6 ± 0.0 | 25.8 ± 3.7 | 61 ± 13 |  |  | 
NH2-CTL-ArgCTL-ArgTL-ArgC [L-GPNA4] | 500000 M⁻¹ | 7.8 | 61.6 | 181 |  |  | 
NH2-CTL-ArgGCTT [GPNA12] |  |  |  |  | 400000 | 800000 M⁻¹ | 
NH2-CTCTL-ArgTC [L-GPNA2] | 1.8e+06 M⁻¹ | 8.5 | 39.6 | 104 |  |  | 
NH2-CTGCTT [PNA12] |  |  |  |  | 200000 | 60000 M⁻¹ | 
NH2-CTD-ArgCTTD-ArgC [D-GPNA3] | 500000 M⁻¹ | 7.8 | 41.8 | 114 |  |  | 
NH2-CTL-ArgCTTL-ArgC [L-GPNA3] | 800000 M⁻¹ | 8.0 | 58.8 | 170 |  |  | 
NH2-CCCTGCTT [PNA10] |  |  |  |  | 1.2e+06 | 400000 M⁻¹ | 
NH2-CTL-ArgCCTL-ArgC [L-GPNA1] | 800000 M⁻¹ |  |  |  |  |  | Ka (RNA hairpin HRP1 (G-C) [5]): 2.2 ± 1.6 ×10^6 M^−1 and 2.2 ×10^6 M^−1; -ΔG (RNA hairpin HRP1 (G-C) [5]): 8.6 ± 0.5 kcal/mol; -ΔH (RNA hairpin HRP1 (G-C) [5]): 24.2 ± 9.6 kcal/mol; -ΔS (RNA hairpin HRP1 (G-C) [5]): 53 ± 34 eu; -ΔG (DNA version of HRP1): 8.7 kcal/mol; -ΔH (DNA version of HRP1): 21.0 kcal/mol; -ΔS (DNA version of HRP1): 41 eu; Ka (DNA version of HRP1): 2.5e+06 M⁻¹; Average association constants Ka, HRP3 (C-G) (RNA hairpin HRP3 (C-G)): 600000 M⁻¹; Average association constants Ka, HRP4 (U-A) (RNA hairpin HRP4 (U-A)): 400000 M⁻¹
